In US20260078135A1, “POLYCYCLIC QUINAZOLINES FOR INHIBITION OF ERBB2” (Enliven Inc., priority 2022, published 2026):

Tests used:
[1] = biological target: T1, phosphorylated EGFR (pEGFR) (Homo sapiens, UniProt P00533); assay: Detection of phosphorylated EGFR (pEGFR) by AlphaLISA in EGF-stimulated A431 cells; assay type: cell-based; details: A431 cells (10% FBS), 4 hours incubation, EGF 30 ng/mL for 10 minutes
T1 construct: performed to measure phosphorylated EGFR levels using A431 cells (10% FBS); endogenous in cells; host or cells: A431
T1 sequence (P00533 25-1210): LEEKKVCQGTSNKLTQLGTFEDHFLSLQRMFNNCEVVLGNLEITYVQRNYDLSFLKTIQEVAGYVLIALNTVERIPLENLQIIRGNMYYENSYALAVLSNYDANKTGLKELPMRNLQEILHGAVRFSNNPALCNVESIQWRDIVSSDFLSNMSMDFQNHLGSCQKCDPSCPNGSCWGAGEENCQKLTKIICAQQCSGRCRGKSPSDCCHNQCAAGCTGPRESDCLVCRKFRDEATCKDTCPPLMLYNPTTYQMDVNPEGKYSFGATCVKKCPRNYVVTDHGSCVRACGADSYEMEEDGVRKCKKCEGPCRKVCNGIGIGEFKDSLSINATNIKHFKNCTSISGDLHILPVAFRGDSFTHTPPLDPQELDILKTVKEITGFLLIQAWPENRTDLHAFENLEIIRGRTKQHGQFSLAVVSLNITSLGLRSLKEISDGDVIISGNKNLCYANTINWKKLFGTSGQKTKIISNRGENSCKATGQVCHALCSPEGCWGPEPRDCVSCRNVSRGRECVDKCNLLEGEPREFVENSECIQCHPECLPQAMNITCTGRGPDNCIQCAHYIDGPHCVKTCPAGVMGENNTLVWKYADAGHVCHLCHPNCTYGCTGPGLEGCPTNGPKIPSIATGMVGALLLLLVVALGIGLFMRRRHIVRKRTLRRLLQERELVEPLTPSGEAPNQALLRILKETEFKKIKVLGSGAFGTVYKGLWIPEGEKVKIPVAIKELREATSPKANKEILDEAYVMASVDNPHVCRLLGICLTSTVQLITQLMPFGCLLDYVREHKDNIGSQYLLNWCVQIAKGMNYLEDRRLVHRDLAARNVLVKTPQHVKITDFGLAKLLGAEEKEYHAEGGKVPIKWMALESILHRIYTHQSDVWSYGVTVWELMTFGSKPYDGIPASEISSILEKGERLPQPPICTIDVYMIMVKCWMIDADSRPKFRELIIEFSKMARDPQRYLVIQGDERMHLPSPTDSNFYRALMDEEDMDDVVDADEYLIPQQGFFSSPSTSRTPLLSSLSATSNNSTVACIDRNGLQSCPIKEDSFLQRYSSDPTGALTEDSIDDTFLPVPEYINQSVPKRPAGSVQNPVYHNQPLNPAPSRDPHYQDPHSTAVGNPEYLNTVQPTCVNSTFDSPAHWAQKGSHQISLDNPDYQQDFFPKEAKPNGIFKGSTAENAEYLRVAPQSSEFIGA
Experimental: Enzyme-linked immunosorbent assays (ELISA) were performed to measure phosphorylated EGFR levels using A431 cells (10% FBS). A431 (1.0*10^4 cells/40 μl/well) cells were seeded in 384 well. Compounds were dissolved in DMSO, serially diluted in DMSO and then were added, mixed, and incubated for 4 hours at 37° C., 5% C02. Following the 4-hours incubation, cells were stimulated for 10 minutes with EGF (Invitrogen, cat #PHG0311) at a final concentration of 30 ng/mL in the incubator. The media was aspirated and cells were lysed in 10 μL lysis buffer with protease and phosphatase inhibitors (PerkinElmer, cat #ALSU-PEGFR-A50K). The plates were placed on a shaker for 5 μminutes and then incubated for 30 min at 4° C. for complete lysis. The lysate was transferred to an Optiplate (Perkin Elmer, cat #6007290).
Acceptor mix (PerkinElmer, cat #ALSU-PEGFR-A50K) was prepared just before use and 5 μL was dispensed to all the wells, followed by a 1.5-2 h incubation at room temperature in dark. The donor mix (PerkinElmer, cat #ALSU-PEGFR-A50K) was prepared under low light conditions prior to use and 5 μl of donor mix was added to all the wells under subdued lighting or green filters. The plates were placed on a shaker for 5 μmin, sealed, and incubated overnight at room temperature in dark. Plates were read on the Envision (PerkinElmer) using standard AlphaLISA settings.
The percentage of inhibition on EGFR phosphorylation was calculated following equation: % Inhibition=100×(LumHC−LumSample)/(LumHC−LumLC). The low and high controls (LC/HC) are generated from lysate from wells with cells treated with DMSO or […] Staurosporine (BioAustralis, cat #BIA-S1086), […]. IC50 values were calculated by fitting the Curve using XLfit (v5.3.1.3), equation 201: Y=Bottom+(Top−Bottom)/(1+10^((Log IC50−X)*HillSlope)).

[2] = biological target: T2, phosphorylated ERBB2 (pERBB2) (Homo sapiens, UniProt P04626); assay: Detection of phosphorylated ERBB2 (pERBB2) by ELISA in BT-474 cells; assay type: cell-based; details: four hour incubation
T2 construct: endogenous in cells; host or cells: BT-474
T2 sequence (P04626 23-1255): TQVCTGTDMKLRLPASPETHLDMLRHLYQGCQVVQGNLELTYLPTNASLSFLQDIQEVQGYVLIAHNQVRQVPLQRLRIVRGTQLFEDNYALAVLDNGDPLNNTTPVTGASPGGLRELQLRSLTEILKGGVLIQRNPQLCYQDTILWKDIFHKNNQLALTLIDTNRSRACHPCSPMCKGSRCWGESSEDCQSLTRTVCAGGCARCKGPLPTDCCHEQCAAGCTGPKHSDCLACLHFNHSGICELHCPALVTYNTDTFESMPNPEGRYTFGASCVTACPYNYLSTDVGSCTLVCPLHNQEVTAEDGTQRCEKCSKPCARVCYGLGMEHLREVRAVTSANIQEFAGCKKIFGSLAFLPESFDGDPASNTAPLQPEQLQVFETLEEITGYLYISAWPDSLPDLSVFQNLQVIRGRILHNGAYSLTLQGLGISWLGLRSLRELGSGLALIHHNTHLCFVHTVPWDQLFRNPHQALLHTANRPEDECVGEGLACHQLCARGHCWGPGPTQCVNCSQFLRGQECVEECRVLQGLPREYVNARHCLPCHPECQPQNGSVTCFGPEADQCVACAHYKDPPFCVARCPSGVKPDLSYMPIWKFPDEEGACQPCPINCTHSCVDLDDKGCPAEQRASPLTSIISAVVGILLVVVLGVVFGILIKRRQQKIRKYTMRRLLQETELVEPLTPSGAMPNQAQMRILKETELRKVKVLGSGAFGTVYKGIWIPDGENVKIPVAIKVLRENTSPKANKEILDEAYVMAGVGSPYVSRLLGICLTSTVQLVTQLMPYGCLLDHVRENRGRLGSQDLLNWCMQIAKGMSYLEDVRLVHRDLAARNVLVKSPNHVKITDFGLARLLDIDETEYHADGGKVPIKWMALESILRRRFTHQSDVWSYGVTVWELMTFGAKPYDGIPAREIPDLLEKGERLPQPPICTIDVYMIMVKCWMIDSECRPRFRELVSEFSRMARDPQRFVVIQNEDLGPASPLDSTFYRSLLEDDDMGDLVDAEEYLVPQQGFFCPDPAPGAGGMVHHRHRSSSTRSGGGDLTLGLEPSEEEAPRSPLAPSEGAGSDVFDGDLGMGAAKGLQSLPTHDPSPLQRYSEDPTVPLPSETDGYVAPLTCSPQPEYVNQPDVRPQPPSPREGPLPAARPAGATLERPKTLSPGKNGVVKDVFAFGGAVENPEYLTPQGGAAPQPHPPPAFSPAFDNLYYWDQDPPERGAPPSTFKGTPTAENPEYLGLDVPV
Experimental: BT-474 cells were seeded into a 96-well at 2.0*10^4 cells/100 μl/well. Compounds were dissolved and serially diluted in DMSO. The compounds were then were added, mixed, and incubated for four hours at 37° C., 5% CO2. Compounds were added using four-fold dilutions at final concentrations ranging from 10 μM to 0.01 nM. Following the four hour incubation with compounds, cell lysates were prepared. Plates were centrifuged for 5 μmin at 3000 RPM, and supernatant was removed from each well. Cells were washed 3 times by resuspension in 150 μl PBS, followed by centrifugation and removal of the supernatant, as above. 100 μl of cell lysis buffer (Boston BioProducts, cat #BP-115D) supplied with 1× complete ULTRA cocktail inhibitor (Thermo ScientificTM, cat #78443) was then added to the washed cells. Cells were incubated with lysis buffer for 1 hour at 4° C., and then stored at -80° C. Enzyme-linked immunosorbent assays (ELISA) were performed to measure phosphorylated ERBB2 levels. […] The next day, plates were washed with PBS+0.05% Tween20 (PBST). 150 μl of 5% BSA blocking solution was added for 1 hour at room temperature, with shaking. Plates were washed with PBST. Cell lysates were thawed and 100 μl of lysate was added to the ELISA plate. The plates were incubated for 2 hours at room temperature, with shaking. ELISA plates were then washed with PBST and 100 μl of an HRP-labeled detection antibody that binds phosphorylated tyrosine (R&D Systems, cat #841913) was added to each well. Plates were incubated for 1 hour at room temperature, with shaking. Plates were then washed with PBST, and 100 μl TMB substrate solution (R&D Systems, cat #DY999) was added. Plate were incubated in the dark for 20 minutes at room temperature. 50 μl of Stop solution (R&D Systems, cat #DY994) (50 μl) was added to each well and mixed. Optical density at 450 nm was read on an EnSpire plate reader (Perkin Elmer). The remaining kinase activity by calculated using the following formula: % Relative activity=100×([…]). The low and high control values (“LC” and “HC”) were generated from lysate from wells without cells or with cells treated with 0.1% DMSO, respectively.

IC50 [1] [nM]	IC50 [2] [nM]	Structure (SMILES)
> 10000	73.9	Cc1cc(Nc2ncnc3cc4c(nc23)N2CCN(C)C[C@H]2CO4)c(F)cc1Oc1ccn2ncnc2c1 [Compound 75, (S)—N-(4-([1,2,4]triazolo[1,5-a]pyridin-7-yloxy)-2-fluoro-5-methylphenyl)-3-methyl-1,2,3,4,4a,5-hexahydropyrazino[1,2-d]pyrimido[4′,5′:5,6]pyrido[3,2-b][1,4]oxazin-11-amine]
> 10000	40.7	Cc1cc(Nc2ncnc3ccc4c(c23)OC[C@H]2CCCCN42)ccc1Oc1ccn2ncnc2c1 [Compound 86, (R)—N-(4-([1,2,4]triazolo[1,5-a]pyridin-7-yloxy)-3-methylphenyl)-6,6a,7,8,9,10-hexahydropyrido[1′,2′:4,5][1,4]oxazino[2,3-f]quinazolin-4-amine]
> 10000	75.5	Cc1cc(Nc2ncnc3ccc4c(c23)OC[C@H]2CCCN42)ccc1Oc1ccn2ncnc2c1 [Compound 87, (R)—N-(4-([1,2,4]triazolo[1,5-a]pyridin-7-yloxy)-3-methylphenyl)-6a,7,8,9-tetrahydro-6H-pyrrolo[1′,2′:4,5][1,4]oxazino[2,3-f]quinazolin-4-amine]
> 10000	211	Cc1c(Oc2ccn3ncnc3c2)ccc(Nc2ncnc3ccc4c(c23)OC[C@H]2COCCN42)c1F [Compound 99, (R)—N-(4-([1,2,4]triazolo[1,5-a]pyridin-7-yloxy)-2-fluoro-3-methylphenyl)-6a,7,9,10-tetrahydro-6H-[1,4]oxazino[4′,3′:4,5][1,4]oxazino[2,3-f]quinazolin-4-amine]
> 10000	82.2	Cc1cc(Nc2ncnc3ccc4c(c23)OC[C@H]2COCCN42)c(F)cc1Oc1ccn2ncnc2c1 [Compound 100, (R)—N-(4-([1,2,4]triazolo[1,5-a]pyridin-7-yloxy)-2-fluoro-5-methylphenyl)-6a,7,9,10-tetrahydro-6H-[1,4]oxazino[4′,3′:4,5][1,4]oxazino[2,3-f]quinazolin-4-amine]
> 10000	503	Fc1cc(Oc2ccn3ncnc3c2)ccc1Nc1ncnc2ccc3c(c12)OC[C@H]1COCCN31 [Compound 101, (R)—N-(4-([1,2,4]triazolo[1,5-a]pyridin-7-yloxy)-2-fluorophenyl)-6a,7,9,10-tetrahydro-6H-[1,4]oxazino[4′,3′:4,5][1,4]oxazino[2,3-f]quinazolin-4-amine]
> 10000	257	Cc1c(Oc2ccn3ncnc3c2)ccc(Nc2ncnc3cc4c(nc23)N2CCOC[C@H]2CO4)c1F [Compound 102, (S)—N-(4-([1,2,4]triazolo[1,5-a]pyridin-7-yloxy)-2-fluoro-3-methylphenyl)-1,2,4a,5-tetrahydro-4H-[1,4]oxazino[4,3-d]pyrimido[4′,5′:5,6]pyrido[3,2-b][1,4]oxazin-11-amine]
> 10000	154	Cc1cc(Nc2ncnc3cc4c(nc23)N2CCOC[C@H]2CO4)c(F)cc1Oc1ccn2ncnc2c1 [Compound 103, (S)—N-(4-([1,2,4]triazolo[1,5-a]pyridin-7-yloxy)-2-fluoro-5-methylphenyl)-1,2,4a,5-tetrahydro-4H-[1,4]oxazino[4,3-d]pyrimido[4′,5′:5,6]pyrido[3,2-b][1,4]oxazin-11-amine]
> 10000	495	Fc1cc(Oc2ccn3ncnc3c2)ccc1Nc1ncnc2cc3c(nc12)N1CCOC[C@H]1CO3 [Compound 104, (S)—N-(4-([1,2,4]triazolo[1,5-a]pyridin-7-yloxy)-2-fluorophenyl)-1,2,4a,5-tetrahydro-4H-[1,4]oxazino[4,3-d]pyrimido[4′,5′:5,6]pyrido[3,2-b][1,4]oxazin-11-amine]
> 10000	225	Cc1cc(Nc2ncnc3cc4c(c(F)c23)N2CCOC[C@H]2CO4)ccc1Oc1ccn2ncnc2c1 [Compound 105, (S)—N-(4-([1,2,4]triazolo[1,5-a]pyridin-7-yloxy)-3-methylphenyl)-12-fluoro-1,2,4a,5-tetrahydro-4H-[1,4]oxazino[4′,3′:4,5][1,4]oxazino[3,2-g]quinazolin-11-amine]
